# Data published in the NIST ThermoML archive (doi:10.1021/je2011314).
# ± gives the expanded uncertainty stated by the source.
# Key:
# [1] = 298.15 K; 101.33 kPa; Liquid; Vibrating tube method
# [2] = xn = mol fraction of the nth substance listed; settings: 298.15 K, 101 kPa, Liquid, Vibrating tube method
smiles,measurement,setting,value
"CC(C)CC(C)(C)C [2,2,4-trimethylpentane]",mass density,[1],687.62 ± 0.62 kg/m3
COC(C)(C)C [2-methoxy-2-methylpropane],mass density,[1],735.21 ± 0.62 kg/m3
COC(C)(C)C [2-methoxy-2-methylpropane] + CC(C)CC(C)(C)C,mass density,[2]; x2 = 0.2997,716 ± 0.17 kg/m3
same,mass density,[2]; x2 = 0.3004,715.84 ± 0.17 kg/m3
same,mass density,[2]; x2 = 0.3012,715.86 ± 0.17 kg/m3
same,mass density,[2]; x2 = 0.5018,705.83 ± 0.18 kg/m3
same,mass density,[2]; x2 = 0.5019,705.9 ± 0.18 kg/m3
same,mass density,[2]; x2 = 0.5037,705.72 ± 0.18 kg/m3
same,mass density,[2]; x2 = 0.6707,698.67 ± 0.18 kg/m3
same,mass density,[2]; x2 = 0.7056,697.4 ± 0.18 kg/m3
same,mass density,[2]; x2 = 0.7134,697.17 ± 0.18 kg/m3
CC(C)OC(C)C [diisopropyl ether],mass density,[1],718.24 ± 0.64 kg/m3
CC(C)OC(C)C [diisopropyl ether] + CC(C)CC(C)(C)C,mass density,[2]; x2 = 0.3056,706.86 ± 0.22 kg/m3
same,mass density,[2]; x2 = 0.3066,706.7 ± 0.22 kg/m3
same,mass density,[2]; x2 = 0.5009,700.59 ± 0.21 kg/m3
same,mass density,[2]; x2 = 0.5027,700.42 ± 0.21 kg/m3
same,mass density,[2]; x2 = 0.5046,700.41 ± 0.21 kg/m3
same,mass density,[2]; x2 = 0.7004,694.83 ± 0.19 kg/m3
same,mass density,[2]; x2 = 0.7009,694.86 ± 0.19 kg/m3
same,mass density,[2]; x2 = 0.7025,694.86 ± 0.19 kg/m3
CCO [ethanol],mass density,[1],785.31 ± 0.62 kg/m3
CO [methanol],mass density,[1],786.56 ± 0.61 kg/m3
CCCO [propan-1-ol],mass density,[1],799.7 ± 0.62 kg/m3
